The numbers were not newly measured in paper PMC7285658 (Chemical communications (Cambridge, England), 2020), which cites them from elsewhere.

This data set concerns the target RSK1/2. The following applies: selective inhibitor of RSK1/2.

In general, Ki refers to a measure of affinity in units of concentration, obtained from inhibition or displacement. As for `CC(=O)O[C@@H]1[C@@H](OC(C)=O)[C@@H](O)[C@H](Oc2c(-c3ccc(O)cc3)oc3cc(O)cc(O)c3c2=O)O[C@H]1C` [SL0101], the Ki is roughly 1 µM.
